# Measured values taken from ChEMBL document CHEMBL1201861, “Genomics of Drug Sensitity in Cancer screening data, Wellcome Trust Sanger Institute”.
# System: Calu-6;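 further: growth of human Calu-6 cells, read out by a cell viability assay, IC50 marking inhibition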
# Assay: cells
# Format: functional, cell-based, Homo sapiens
# Settings: Homo sapiens, Calu-6
row,SMILES,IC50 [µM]
1,COc1cc(-c2nn([C@H]3CC[C@H](N4CCN(C(C)=O)CC4)CC3)c3ncnc(N)c23)ccc1NC(=O)c1cc2ccccc2n1C,> 5.12

# System: D-247MG
# Assay: cells
# Format: functional, cell-based, Homo sapiens
# Settings: Homo sapiens, D-247MG
# Description: SANGER: Inhibition of human D-247MG cell growth in a cell viability assay.
row,SMILES,IC50 [µM]
1,COc1cc(-c2nn([C@H]3CC[C@H](N4CCN(C(C)=O)CC4)CC3)c3ncnc(N)c23)ccc1NC(=O)c1cc2ccccc2n1C,> 5.12

# System: D-263MG
# Assay: cells
# Format: functional, cell-based, Homo sapiens
# Settings: Homo sapiens, D-263MG
# Description: SANGER: Inhibition of human D-263MG cell growth in a cell viability assay.
row,SMILES,IC50 [µM]
1,COc1cc(-c2nn([C@H]3CC[C@H](N4CCN(C(C)=O)CC4)CC3)c3ncnc(N)c23)ccc1NC(=O)c1cc2ccccc2n1C,> 5.12

# System: DB
# Assay: cells
# Format: functional, cell-based, Homo sapiens
# Settings: Homo sapiens, DB
# Description: SANGER: Inhibition of human DB cell growth in a cell viability assay.
row,SMILES,IC50 [µM]
1,COc1cc(-c2nn([C@H]3CC[C@H](N4CCN(C(C)=O)CC4)CC3)c3ncnc(N)c23)ccc1NC(=O)c1cc2ccccc2n1C,> 5.12

# System: DMS-79;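 further: growth inhibition measured with a cell viability assay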
# Assay: cells
# Format: functional, cell-based, Homo sapiens
# Settings: Homo sapiens, DMS-79
# Description: SANGER: Inhibition of human DMS-79 cell growth in a cell viability assay.
row,SMILES,IC50 [µM]
1,COc1cc(-c2nn([C@H]3CC[C@H](N4CCN(C(C)=O)CC4)CC3)c3ncnc(N)c23)ccc1NC(=O)c1cc2ccccc2n1C,> 5.12

# System: DU-4475
# Assay: cells
# Format: functional, cell-based, Homo sapiens
# Settings: Homo sapiens, DU-4475
# Description: SANGER: Inhibition of human DU-4475 cell growth in a cell viability assay.
row,SMILES,IC50 [µM]
1,COc1cc(-c2nn([C@H]3CC[C@H](N4CCN(C(C)=O)CC4)CC3)c3ncnc(N)c23)ccc1NC(=O)c1cc2ccccc2n1C,> 5.12

# System: EW-1;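 further: growth inhibition of the human EW-1 cell line, read out by a cell viability assay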
# Assay: cells
# Format: functional, cell-based, Homo sapiens
# Settings: Homo sapiens, EW-1
# Description: SANGER: Inhibition of human EW-1 cell growth in a cell viability assay.
row,SMILES,IC50 [µM]
1,COc1cc(-c2nn([C@H]3CC[C@H](N4CCN(C(C)=O)CC4)CC3)c3ncnc(N)c23)ccc1NC(=O)c1cc2ccccc2n1C,> 5.12

# System: HCC2218;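 further: cell viability assay read-out, with IC50 given as the concentration that inhibits growth of the cell line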
# Assay: cells
# Format: functional, cell-based, Homo sapiens
# Settings: Homo sapiens, HCC2218
# Description: SANGER: Inhibition of human HCC2218 cell growth in a cell viability assay.
row,SMILES,IC50 [µM]
1,COc1cc(-c2nn([C@H]3CC[C@H](N4CCN(C(C)=O)CC4)CC3)c3ncnc(N)c23)ccc1NC(=O)c1cc2ccccc2n1C,> 5.12

# System: HEL;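 further: growth inhibition of HEL cells, read out with a cell viability assay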
# Assay: cells
# Format: functional, cell-based, Homo sapiens
# Settings: Homo sapiens, HEL
# Description: SANGER: Inhibition of human HEL cell growth in a cell viability assay.
row,SMILES,IC50 [µM]
1,COc1cc(-c2nn([C@H]3CC[C@H](N4CCN(C(C)=O)CC4)CC3)c3ncnc(N)c23)ccc1NC(=O)c1cc2ccccc2n1C,> 5.12

# System: HT
# Assay: cells
# Format: functional, cell-based, Homo sapiens
# Settings: Homo sapiens, HT
# Description: SANGER: Inhibition of human HT cell growth in a cell viability assay.
row,SMILES,IC50 [µM]
1,COc1cc(-c2nn([C@H]3CC[C@H](N4CCN(C(C)=O)CC4)CC3)c3ncnc(N)c23)ccc1NC(=O)c1cc2ccccc2n1C,> 5.12

# System: HT-144
# Assay: cells
# Format: functional, cell-based, Homo sapiens
# Settings: Homo sapiens, HT-144
# Description: SANGER: Inhibition of human HT-144 cell growth in a cell viability assay.
row,SMILES,IC50 [µM]
1,COc1cc(-c2nn([C@H]3CC[C@H](N4CCN(C(C)=O)CC4)CC3)c3ncnc(N)c23)ccc1NC(=O)c1cc2ccccc2n1C,> 5.12

# System: HuTu80;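 further: growth inhibition of HuTu80 human cells, determined with a cell viability readout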
# Assay: cells
# Format: functional, cell-based, Homo sapiens, HUTU-80
# Settings: Homo sapiens, HuTu80
# Description: SANGER: Inhibition of human HUTU-80 cell growth in a cell viability assay.
row,SMILES,IC50 [µM]
1,COc1cc(-c2nn([C@H]3CC[C@H](N4CCN(C(C)=O)CC4)CC3)c3ncnc(N)c23)ccc1NC(=O)c1cc2ccccc2n1C,1.5

# System: JAR;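 further: growth inhibition of human JAR cells determined with a cell viability assay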
# Assay: cells
# Format: functional, cell-based, Homo sapiens
# Settings: Homo sapiens, JAR
# Description: SANGER: Inhibition of human JAR cell growth in a cell viability assay.
row,SMILES,IC50 [µM]
1,COc1cc(-c2nn([C@H]3CC[C@H](N4CCN(C(C)=O)CC4)CC3)c3ncnc(N)c23)ccc1NC(=O)c1cc2ccccc2n1C,> 5.12

# System: KM12;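 further: KM12 cell growth inhibition, read out with a cell viability assay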
# Assay: cells
# Format: functional, cell-based, Homo sapiens
# Settings: Homo sapiens, KM12
# Description: SANGER: Inhibition of human KM12 cell growth in a cell viability assay.
row,SMILES,IC50 [µM]
1,COc1cc(-c2nn([C@H]3CC[C@H](N4CCN(C(C)=O)CC4)CC3)c3ncnc(N)c23)ccc1NC(=O)c1cc2ccccc2n1C,> 5.12

# System: LB996-RCC
# Assay: cells
# Format: functional, cell-based, Homo sapiens
# Settings: Homo sapiens, LB996-RCC
# Description: SANGER: Inhibition of human LB996-RCC cell growth in a cell viability assay.
row,SMILES,IC50 [µM]
1,COc1cc(-c2nn([C@H]3CC[C@H](N4CCN(C(C)=O)CC4)CC3)c3ncnc(N)c23)ccc1NC(=O)c1cc2ccccc2n1C,0.0746

# System: LC-2-ad;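 further: growth inhibition of human LC-2-ad cells, read out with a cell viability assay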
# Assay: cells
# Format: functional, cell-based, Homo sapiens
# Settings: Homo sapiens, LC-2-ad
# Description: SANGER: Inhibition of human LC-2-ad cell growth in a cell viability assay.
row,SMILES,IC50 [µM]
1,COc1cc(-c2nn([C@H]3CC[C@H](N4CCN(C(C)=O)CC4)CC3)c3ncnc(N)c23)ccc1NC(=O)c1cc2ccccc2n1C,0.483

# System: LNCaP-Clone-FGC
# Assay: cells
# Format: functional, cell-based, Homo sapiens
# Settings: Homo sapiens, LNCaP-Clone-FGC
# Description: SANGER: Inhibition of human LNCaP-Clone-FGC cell growth in a cell viability assay.
row,SMILES,IC50 [µM]
1,COc1cc(-c2nn([C@H]3CC[C@H](N4CCN(C(C)=O)CC4)CC3)c3ncnc(N)c23)ccc1NC(=O)c1cc2ccccc2n1C,> 5.12

# System: MZ1-PC;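 further: cell viability assay measuring growth inhibition of human MZ1-PC cells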
# Assay: cells
# Format: functional, cell-based, Homo sapiens
# Settings: Homo sapiens, MZ1-PC
# Description: SANGER: Inhibition of human MZ1-PC cell growth in a cell viability assay.
row,SMILES,IC50 [µM]
1,COc1cc(-c2nn([C@H]3CC[C@H](N4CCN(C(C)=O)CC4)CC3)c3ncnc(N)c23)ccc1NC(=O)c1cc2ccccc2n1C,0.595

# System: MZ7-mel;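 further: growth inhibition of human MZ7-mel cells, measured by a cell viability assay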
# Assay: cells
# Format: functional, cell-based, Homo sapiens
# Settings: Homo sapiens, MZ7-mel
# Description: SANGER: Inhibition of human MZ7-mel cell growth in a cell viability assay.
row,SMILES,IC50 [µM]
1,COc1cc(-c2nn([C@H]3CC[C@H](N4CCN(C(C)=O)CC4)CC3)c3ncnc(N)c23)ccc1NC(=O)c1cc2ccccc2n1C,> 5.12

# System: NB10;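 further: growth inhibition of NB10 cells, read out by a cell viability assay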
# Assay: cells
# Format: functional, cell-based, Homo sapiens
# Settings: Homo sapiens, NB10
# Description: SANGER: Inhibition of human NB10 cell growth in a cell viability assay.
row,SMILES,IC50 [µM]
1,COc1cc(-c2nn([C@H]3CC[C@H](N4CCN(C(C)=O)CC4)CC3)c3ncnc(N)c23)ccc1NC(=O)c1cc2ccccc2n1C,> 5.12

# System: NB5;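 further: growth inhibition of NB5 cells, read out as cell viability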
# Assay: cells
# Format: functional, cell-based, Homo sapiens
# Settings: Homo sapiens, NB5
# Description: SANGER: Inhibition of human NB5 cell growth in a cell viability assay.
row,SMILES,IC50 [µM]
1,COc1cc(-c2nn([C@H]3CC[C@H](N4CCN(C(C)=O)CC4)CC3)c3ncnc(N)c23)ccc1NC(=O)c1cc2ccccc2n1C,> 5.12

# System: NCI-H1092;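 further: cell growth inhibition measured with a cell viability assay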
# Assay: cells
# Format: functional, cell-based, Homo sapiens
# Settings: Homo sapiens, NCI-H1092
# Description: SANGER: Inhibition of human NCI-H1092 cell growth in a cell viability assay.
row,SMILES,IC50 [µM]
1,COc1cc(-c2nn([C@H]3CC[C@H](N4CCN(C(C)=O)CC4)CC3)c3ncnc(N)c23)ccc1NC(=O)c1cc2ccccc2n1C,> 5.12

# System: NCI-H2126;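 further: growth inhibition of the cancer cell line, determined with a cell viability readout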
# Assay: cells
# Format: functional, cell-based, Homo sapiens
# Settings: Homo sapiens, NCI-H2126
# Description: SANGER: Inhibition of human NCI-H2126 cell growth in a cell viability assay.
row,SMILES,IC50 [µM]
1,COc1cc(-c2nn([C@H]3CC[C@H](N4CCN(C(C)=O)CC4)CC3)c3ncnc(N)c23)ccc1NC(=O)c1cc2ccccc2n1C,> 5.12

# System: NCI-H226;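 further: cell viability read-out used to gauge growth inhibition of the cells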
# Assay: cells
# Format: functional, cell-based, Homo sapiens
# Settings: Homo sapiens, NCI-H226
# Description: SANGER: Inhibition of human NCI-H226 cell growth in a cell viability assay.
row,SMILES,IC50 [µM]
1,COc1cc(-c2nn([C@H]3CC[C@H](N4CCN(C(C)=O)CC4)CC3)c3ncnc(N)c23)ccc1NC(=O)c1cc2ccccc2n1C,> 5.12
